Experimental data taken from publication PMC5282547, “The Proline/Arginine Dipeptide from Hexanucleotide Repeat Expanded C9ORF72 Inhibits the Proteasome” (eNeuro, 2017).
“Also recorded” adds a separate entry of the source. Where a SMILES comes first, the peptide text is derived from it. The star is where a group is joined. Cbz = O=C(OCc1ccccc1)*

How the values were obtained:
[1] = test system: motor neurons; assay: Motor neuron survival in mixed spinal cord cultures (SMI32 counts), LD50 determination; assay type: cell-based, rat
Protocol: Mixed spinal cord neuron cultures were prepared as described previously ([Mojsilovic-Petrovic et al., 2006]). Briefly, an astrocyte feeder layer was prepared from the cortex of newborn Sprague Dawley rat pups [postnatal day 2 (P2)] and grown to ∼80% confluency. Subsequently, dissociated embryonic day 15 (E15) spinal cord neurons were added. One to two days later, AraC ([…]) (catalog #C6645; Sigma) was added for 24 h to arrest astrocyte proliferation. Cultures were maintained in glia-conditioned medium supplemented with the following trophic factors (1.0 ng/ml each): human neurotrophin-3, human neurotrophin-4, human brain-derived neurotrophic factor, and rat ciliary neurotrophic factor (Alomone Labs). Half of the culture medium was replaced on a biweekly basis.
Days in vitro (DIV)14 mixed spinal cord cultures were exposed to PR20 or GR20 by addition of synthetic peptide to the media one time. Cultures were fixed 5 d later with freshly prepared 4% paraformaldehyde for 20 min, washed extensively with 0.1 M PBS, pH 7.4, and immunostained with SMI32 to identify motor neurons. Immunopositive cells >25 µm in diameter are motor neurons based on their costaining for peripherin, ChAT, and islet 1/2 ([Mojsilovic-Petrovic et al., 2006]). Motor neurons were counted in three nonoverlapping, randomly selected fields on a coverslip using a 5[times objective, and the values from a single coverslip averaged. The results of 3-5 independently treated coverslips were the basis and means and variance used in statistical analysis. Each experiment was repeated with independently generated culture 4+ times ([Mojsilovic-Petrovic et al., 2006]).
Motor neuron survival 5 d later was determined. Once the approximate LD50 was determined, we repeated the analysis with more closely spaced concentrations for a more precise definition of the LD50. Determination of the LD50 of MG132 was accomplished in an identical manner.

[2] = test system: ubiquitin-proteasome system; assay: MG-132 flux assay (flux of ubiquitylated substrates through the UPS); assay type: cell-based, rat
Protocol: MG-132 (Sigma) was used to inhibit proteasomal function. Cells were initially treated with PR20 for a total of 48 h using the method outlined in PR20 treatment for biochemical assays. Four hours prior to lysis, these cells were treated with MG-132 or vehicle. The MG-132 was kept in a stock solution in DMSO. This was added directly to culture to achieve a final concentration of 5 μM. Cells were then lysed in RIPA buffer and immunoblotted for ubiquitin.
Ubiquitin analysis requires the use of deubiquitinase (DUB) inhibitors. Lysis without these inhibitors runs the risk of degradation of the substrates to be targeted. As such, N-ethylmaleimide (Sigma), a potent DUB inhibitor, was used in the lysis buffer. […] The remainder of the lysis procedure follows Cell lysis.
To test for group differences in the flux assay, a permutation test was used. This is a nonparametric statistical test that was implemented in MATLAB. […] The test first quantifies this by taking the average of each experimental group and then finding the difference of ratios. It then permutes two samples located in two groups randomly, and determines that difference between averages again. This is repeated 50,000 times, and a histogram is plotted. This histogram represents the distribution of random noise in the sample. Since a higher difference in the +MG132/−MG132 ratio is a more “significant” result, the percentage of the random noise produced from 50,000 permutations that is higher in magnitude than the true difference (calculated from un-permuted data) is the p value.
Permutations of a data point in a +MG132 into a group labeled −MG132 (or vice versa) were not allowed. […] Thus, this group difference was not interesting to us.

[3] = test system: U2OS cells and human astrocytes; details: cited from earlier work
Text: The difficulty of distinguishing between toxic HRE mRNA and DPR proteins has impeded our understanding of the mechanism underlying C9ORF72 HRE pathophysiology. As reported in Science ([Kwon et al., 2014]), the McKnight lab devised a strategy to overcome this problem: they studied U2OS cells and human astrocytes directly exposed to synthetic DPR proteins. […] We built upon this approa ...

[4] = test system: Dendra2-LC3; assay: Autophagic flux assay, optical pulse labeling of Dendra2-LC3; assay type: cell-based, rat
Protocol: (§1) Primary spinal neurons were dissected from E15 rat pups and cultured at a density of 2.5 × 10^5 cells/ml on a laminin/poly-lysine-coated 96-well plate in motor neuron media. Four days after plating, neurons were transfected with Lipofectamine 2000 (Invitrogen). DNA-Lipofectamine mixtures were incubated with neurons for 20 min followed by rinsing. Neurons were then placed in 100 µL of conditioned media that was collected immediately prior to transfection and half fresh motor neuron media containing 4 µM PR20, resulting in a final concentration of 2 µM PR20.
(§2) Optical pulse labeling experiments were performed using an automated microscopy platform previously described by [Arrasate et al. (2004)] and [Barmada et al. (2014)]. A Nikon Eclipse Ti inverted microscope equipped with a PerfectFocus system, 20× objective lens and an Andor iXon3 897 EMCCD camera were used to acquire images. Samples were illuminated with a Sutter Instruments Lamba XL lamp. The microscope and related components were encased in custom-built plexiglass enclosure set to maintain the temperature at 37°C and CO2 at 5%. Semrock GFP and TRITC filters were used for excitation and detection. A Semrock 405-nm long-pass filter was used for photoactivation. Image acquisition and stage movements were accomplished in an automated fashion using µManager and original code written in BeanShell. For all experiments, photoconversion occurred 24 h following transfection. GFP and TRITC images were acquired immediately following activation and subsequently every 2 h for 12 h. Images were acquired in a similar 12-h window starting 48 h after PR20 treatment. Using in-house image analysis scripts, neuronal cell bodies were identified based on their fluorescent intensity and morphology, and a ROI was drawn around the perimeter of each cell at each time. Single-cell TRITC intensity values were recorded and used to fit a first order exponential decay curve for individual neurons and calculate a Dendra2-light chain 3 (LC3) half-life for each cell. […]

[5] = test system: Dendra2; assay: Optical pulse labeling of Dendra2; assay type: cell-based, rat; details: vehicle 29.6 h
Protocol: as §1, §2

[6] = test system: mixed spinal cord cultures; assay: Cellular accumulation and disposal of HA-tagged DPR (immunoblot of cell lysates, continuous exposure or 2-h pulse-chase)
Protocol: Confluent dishes of astrocyte neuron cocultures at 37°C had volumes equalized to 2 ml of cell culture media each. Approximately 300 μl of media from each dish was removed and pooled with other dishes, PR20 stock solution was added, and the mixture was then added back to the corresponding culture dish, so that each dish contained a final concentration of 2 μM. All plates were incubated with PR20 for 48 h.
Lysis buffer was prepared containing 1% (v/v) protease inhibitor cocktail, 1% (v/v) PMSF, and 1% (v/v) leucine in 1% RIPA buffer solution on ice. Culture dishes were washed once with ice-cold PBS to remove any remaining media. A total of 125 μl (35-mm dish), 150 μl (6-well plate), or 250 μL (60-mm dish) of lysis buffer was added to each plate, and cells were scraped into a cold 1.5-ml tube. Samples were sonicated for 30 s at 20% intensity, placed on a rotator at 4°C for 20 min, and then centrifuged for 15 min at 13,200 rpm. Supernatant was then removed from each tube for further analysis.
We investigated the fate of PR20 in mixed spinal cord cultures through immunoblotting and immunocytochemistry. […] To gain further insight into the kinetics of the observed decrease in PR20 levels in cell lysates over time, we pulsed cells with 2 µM PR20 for 2 h, washed, replaced with fresh media (lacking PR20), and made cell lysates at regular intervals thereafter. […] To more easily follow GR20 by immunoblotting, we applied 10 µM GR20 to cultures and performed the same kinetic analysis as described in Figure 1D.

[7] = test system: motor neurons; assay: Motor neuron survival with IU1 co-treatment; assay type: cell-based, rat
Protocol: Days in vitro (DIV)14 mixed spinal cord cultures were exposed to PR20 or GR20 by addition of synthetic peptide to the media one time. Cultures were fixed 5 d later with freshly prepared 4% paraformaldehyde for 20 min, washed extensively with 0.1 M PBS, pH 7.4, and immunostained with SMI32 to identify motor neurons. […] Motor neurons were counted in three nonoverlapping, randomly selected fields on a coverslip using a 5[times objective, and the values from a single coverslip averaged.
For experiments involving IU1, DIV14 cultures were treated with PR20 or its vehicle, and every other day, IU1 (or vehicle) was added to the culture media to achieve a final concentration of 5 µM. At DIV19, cultures were fixed and motor neuron number determined as described above.

[8] = 10 µM in media, continuous exposure

In the case of “GR20: synthetic, HA-tagged dipeptide repeat protein: glycine/arginine repeated 20 times”, the “toxicity to motor neurons at ∼20 times higher concentration than PR20” value ([1]; 5 d) is given as “not toxic”, the “proteasomal flux (difference in ubiquitin +/- MG-132) versus vehicle” value ([2]; peptide 48 h (PR20 2 µM), then MG-132 5 µM or vehicle 4 h, permutation test) is given as “neither influenced total ubiquitin levels nor proteasomal flux” and the toxic concentration range [3] is given as 10 to 30 µM. For the same molecule, the “extension of Dendra2-LC3 half-life compared with control” value ([4]; 2 µM peptide, primary spinal neurons, single-cell optical pulse labeling) was 1.5 h, the Dendra2 half-life ([5]; 2 µM peptide, not significantly different from vehicle) was 31.0 h and the “period of maximal accumulation in cells” value [6, 8] was “first hour”. For the same molecule, the “time point at which immunoblot signal is undetectable” value [6, 8] was 24 h, the “earliest detection in cell lysates” value ([6]; 10 µM in media, continuous exposure, anti-HA immunoblot) was 15 min and the “lysate fractions with detectable Western blot signal at the 2-h time point” value ([6]; 2-h pulse-chase, 10 µM) was “soluble fraction only”. The “time point by which signal diminishes to a barely detectable level” value ([6]; 2-h pulse-chase, 10 µM) was 4 h, the “half-life of dipeptide in cells” value ([6]; immunoblot of mixed spinal cord culture lysates) was “on the orders of hours” and the “detectability by immunoblotting in lysates” value ([6]; single 2-h application of 2 µM) was “weakly detectable”.

For Cc1cc(C(=O)CN2CCCC2)c(C)n1-c1ccc(F)cc1 [IU1], the “effect of IU1 on MG132-induced reduction in motor neuron number” value ([7]; 5 µM IU1, 150 nM MG132, 5 d) was “reversed”, the “effect of IU1 on PR20-induced motor neuron death” value ([7]; 5 µM IU1 every other day with PR20, 5 d, p < 0.05) was “blocks the toxic effects; also recorded: rescued to control levels; also recorded: prevents this effect” and the “effect of IU1 alone on motor neuron survival” value ([7]; 5 µM IU1 every other day, vehicle-treated cells, 5 d) was “not toxic; also recorded: did not influence the survival”.

For CC(C)C[C@@H](C=O)NC(=O)[C@H](CC(C)C)NC(=O)[C@H](CC(C)C)NC(=O)OCc1ccccc1 [MG132, reference compound] (Cbz-Leu-Leu-Leu-aldehyde), the “LD50, motor neuron number” value ([1]; added one time to mixed spinal cord cultures, counted 5 d later) was 100 to 150 nM, the “proteasomal flux versus control” value ([2]; 150 nM MG132 48 h, then 5 µM MG132 or vehicle 4 h, n = 6, p = 0.027) was “statistically significant reduction” and the “motor neuron number compared with all other experimental groups” value ([7]; 150 nM MG132, 5 d, p = 0.001) was “statistically significantly fewer motor neurons”. The “extension of Dendra2-LC3 half-life compared with control” value ([4]; 10 µM MG132, primary spinal neurons) was 11.9 h and the Dendra2 half-life ([5]; MG132 (10 µM), p = 3.23 × 10^−5) was 32.3 h.
